Here are results for ten compounds from patent US6482837B1 (priority 1998, dated 2002).

Read-outs that look alike come from different tables or passages of the source.

Data set [1] concerns M3 versus M1 and M2 receptors. Particulars: cited from earlier work.
The test system of data set [2] is guinea pig bladder. Conditions: in vivo; cited from earlier work.
Data set [3] has as its system muscarinic receptors in heart and submaxillary gland. Particulars: in vivo, iv; cited from earlier work.
Data set [4] has as its system guinea pig bladder. Particulars: in vivo; cited from earlier work. The source holds these as a separate data set.
Data set [5] concerns lung. Conditions: iv.
Data set [6] concerns tracheal rings. The data set is classed as cell-based, guinea pig.
The subject of data set [7] is Guinea pig detrusor. In kind it is cell-based.
For data set [8], the system named is muscarinic receptors. Conditions: human, in vivo, cited from earlier work.
Data set [9] deals with miniature swine bladder. Conditions: in vivo.
Data set [10] deals with muscarinic receptors. Conditions: dog, in vivo; cited from earlier work.
The conditions of data set [11]: in vivo; cited from earlier work.
For data set [12] the following is noted: human, in vivo.
In data set [13] the target is M3 receptor (Homo sapiens, UniProt P20309). Particulars: cited from earlier work.
The conditions of data set [14]: human, in vivo; cited from earlier work.

Sequence of M3 receptor (P20309 whole entry): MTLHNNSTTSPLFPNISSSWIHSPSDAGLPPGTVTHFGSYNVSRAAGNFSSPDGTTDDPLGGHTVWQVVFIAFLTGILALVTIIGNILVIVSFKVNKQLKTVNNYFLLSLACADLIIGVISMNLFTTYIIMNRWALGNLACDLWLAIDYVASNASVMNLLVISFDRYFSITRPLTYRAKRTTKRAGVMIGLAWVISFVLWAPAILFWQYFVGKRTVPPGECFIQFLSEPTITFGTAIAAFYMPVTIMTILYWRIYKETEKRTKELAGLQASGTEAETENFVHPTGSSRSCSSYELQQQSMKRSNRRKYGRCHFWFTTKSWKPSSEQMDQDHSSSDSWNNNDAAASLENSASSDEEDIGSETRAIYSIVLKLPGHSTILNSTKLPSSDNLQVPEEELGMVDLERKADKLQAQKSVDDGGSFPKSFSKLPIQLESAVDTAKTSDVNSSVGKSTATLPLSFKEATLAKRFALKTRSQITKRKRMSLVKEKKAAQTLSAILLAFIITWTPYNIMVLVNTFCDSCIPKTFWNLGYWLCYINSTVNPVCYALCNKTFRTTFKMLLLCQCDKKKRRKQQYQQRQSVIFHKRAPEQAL

“3-(4-benzylpiperazinyl)-1,1-diphenyl-1-hydroxy-2-propanone”: in data set [1], the “selective for M3 versus M1” value is 18 fold and the “selective for M3 versus M2 receptors” value is listed as 242 fold. Moreover, in data set [2], the “separation between bladder function and effect on mydriasis” value is listed as 20 fold; the “separation between bladder function and effect on salivation” value is on record as 41 fold.

As to `O=C(OC1CCN(CCBr)CC1)C(c1ccccc1)c1ccccc1` [4-DAMP bromo mustard, N-(2-bromoethyl)-4-piperidinyl diphenylacetate], the “receptors alkylated in both the heart and submaxillary gland” value in [3] is listed as “more than 95%”.

Take `CN(C)CC#CCCC(=O)C(O)(c1ccccc1)C1CCC1` (centres unmarked) [14b, 1-cyclobutyl-7-(dimethylamino)-1-hydroxy-1-phenyl-5-heptyn-2-one]: the “duration of action relative to oxybutynin” value in data set [4] is 5 fold.

For the compound `COC(=O)C1=CC[C@@H]2CC[C@H]1N2C` [AEME, Anhydroecgonine methyl ester], the safety result in [5] (in vivo) is listed as “wide margin of safety”. Further, the “anticholinergic effects in the lung in vivo” value in [5] was “more sustained and dramatic than anticipated”. In data set [6], the cholinergic agonist activity entry is “lacked cholinergic agonist activity”, the “levels at which antimuscarinic properties on tracheal rings were observed (as low as)” value is reported as 10^−9 M, the “sensitization to ACh produced by cocaine at 5×10^−6 M” value is “reduced the sensitization” and the “type of muscarinic activity in vitro” value is recorded as “potent non-competitive muscarinic antagonist”. In addition, in [7], the “recovery of response to ACh after repeated washings” value is reported as “did not recover”, the “response of tissue to 10^−4M ACh” value is reported as “reduced response of tissue”, the “response to a range of ACh concentrations (up to 2×10^−3M)” value is listed as “attenuated” and the “reversal of attenuation by washing” value is recorded as “not reversed”.

`C[N+]12CCC(CC1)C(OC(=O)C(O)(c1ccccc1)c1ccccc1)C2` (centres unmarked) [MeQNB, methyl quinuclidinyl benzilate]: the “rate constant of nonspecific binding” value in data set [8] was 0.03 min⁻¹. In addition, in [8] (read-out: equilibrium dissociation constant kd), the equilibrium dissociation constant (Kd) – broadly, the concentration at which binding is half-saturated – is 0.002 ± 0.0005 µM. Also, in data set [9], the “Body Temp increase ° C.” value stood at 0 °C and the “Heart rate % increase” value stood at 0%. Moreover, the “activity relative to oxybutynin” value in [9] (iv) is reported as “about 10 fold”. Moreover, in [10], the “rate constant k+1” value was 1e+07 ± 1.7e+06 M⁻¹ s⁻¹ and the “rate constant k−1” value is 4.5e+06 ± 500000 M⁻¹ s⁻¹.

For `CN1[C@@H]2CC[C@H]1C[C@@H](OC(=O)C(CO)c1ccccc1)C2` (some centres unmarked) [atropine], the “accumulation in the heart blocked by preinjection” value in data set [11] is listed as 89%.

As for `O=C1OC2(c3ccc(O)cc3Oc3cc(O)ccc32)c2ccccc21` [fluorescein], in data set [12], the “absorbed from the bladder” value was “About 50%”.

In the case of `COc1ccccc1CNCCCCCCNCCCCCCCCNCCCCCCNCc1ccccc1OC` [methoctramine], the inhibition constant Ki (in general, the dissociation constant of the complex between target and ligand, obtained from inhibition or displacement) in [13] was 0.408 µM.

Turning to `O[Si](CCCN1CCCCC1)(c1ccc(F)cc1)C1CCCCC1` (centres unmarked) [p-F-HHSiD], the inhibition constant Ki in data set [13] (read-out: Ki) is 0.028 µM.

With `CC(CC(c1ccccc1)c1ccccc1)NC(C)(C)C` (centres unmarked) [terodiline, Terodiline], in [14], the “Bladder volume at first urge and bladder capacity” value is “increased”; the “micturition frequency and incontinence episodes” value was “reduced”.
